Results published in ChEMBL document CHEMBL3885861, “Open TG-GATES”.

Organism: Rattus norvegicus
Test: Open TG-GATES - Regimen: Single
Type: toxicity, organism-based, Sprague-Dawley
Set-up: regimen Single, gender Male, age 6 weeks
Settings: in vivo, po, 30 mg/kg, route gavage, dose level High; for APTT / Bas / Eos / Fbg / Hb / Ht / Lym / MCH / MCHC / MCV / Mono / Neu / PT / Plat / RBC / Ret / WBC: tissue Blood; for KIDNEY_L / KIDNEY_R / KIDNEY_TOTAL: tissue Kidney; for LIVER: tissue Liver; for A/G / ALP / ALT / AST / BUN / CRE / Ca / Cl / DBIL / GLC / IP / K / LDH / Na / PL / RALB / TBIL / TC / TG / TP / gamma-GTP: tissue Plasma

## Cn1cnc([N+](=O)[O-])c1Sc1ncnc2nc[nH]c12 [AZATHIOPRINE]
3 h
  TERMINAL_BW: 191.2 g
  APTT: 22.3 s
  Bas: 0%
  Eos: 1%
  Fbg: 297.8 mg/dL
  Hb: 13.1 g/dL
  Ht: 39.1%
  Lym: 71.8%
  MCH: 21.6 pg
  MCHC: 33.5%
  MCV: 64.6 fL
  Mono: 1.8%
  Neu: 24.6%
  PT: 15.5 s
  Plat: 118.4 x10_4/uL
  RBC: 605.8 x10_4/ul
  Ret: 9.2%
  WBC: 56 x10_2/uL
  KIDNEY_L: 0.9 g
  KIDNEY_R: 0.9 g
  KIDNEY_TOTAL: 1.7 g
  LIVER: 8.5 g
  A/G: 1.2
  ALP: 1649.8 IU/L
  ALT: 41.6 IU/L
  AST: 73.2 IU/L
  BUN: 10.6 mg/dL
  CRE: 0.1 mg/dL
  Ca: 10.3 mg/dL
  Cl: 104.8 meq/L
  DBIL: 0.004 mg/dL
  GLC: 182.8 mg/dL
  IP: 9 mg/dL
  K: 4 meq/L
  LDH: 171.8 IU/L
  Na: 143.2 meq/L
  PL: 138.4 mg/dL
  RALB: 3 g/dL
  TBIL: 0.01 mg/dL
  TC: 80.4 mg/dL
  TG: 47.6 mg/dL
  TP: 5.4 g/dL
  gamma-GTP: 1 IU/L
6 h
  TERMINAL_BW: 192.3 g
  APTT: 21 s
  Bas: 0%
  Eos: 0.8%
  Fbg: 311.8 mg/dL
  Hb: 13.2 g/dL
  Ht: 39.6%
  Lym: 71.4%
  MCH: 21.5 pg
  MCHC: 33.3%
  MCV: 64.8 fL
  Mono: 2.2%
  Neu: 25%
  PT: 15.5 s
  Plat: 120.3 x10_4/uL
  RBC: 612.2 x10_4/ul
  Ret: 9%
  WBC: 54.6 x10_2/uL
  KIDNEY_L: 0.9 g
  KIDNEY_R: 0.9 g
  KIDNEY_TOTAL: 1.8 g
  LIVER: 7.9 g
  A/G: 1.1
  ALP: 1635.4 IU/L
  ALT: 36.4 IU/L
  AST: 69.8 IU/L
  BUN: 9.8 mg/dL
  CRE: 0.2 mg/dL
  Ca: 10.6 mg/dL
  Cl: 104.8 meq/L
  DBIL: 0.002 mg/dL
  GLC: 187.4 mg/dL
  IP: 9.1 mg/dL
  K: 4.4 meq/L
  LDH: 221 IU/L
  Na: 141.2 meq/L
  PL: 127.2 mg/dL
  RALB: 2.9 g/dL
  TBIL: 0.008 mg/dL
  TC: 73.4 mg/dL
  TG: 44.6 mg/dL
  TP: 5.5 g/dL
  gamma-GTP: 1 IU/L
9 h
  TERMINAL_BW: 184.1 g
  APTT: 22 s
  Bas: 0%
  Eos: 0.8%
  Fbg: 328.4 mg/dL
  Hb: 12.7 g/dL
  Ht: 38.7%
  Lym: 74.4%
  MCH: 21.3 pg
  MCHC: 32.9%
  MCV: 64.9 fL
  Mono: 2.8%
  Neu: 20.6%
  PT: 15.5 s
  Plat: 102.9 x10_4/uL
  RBC: 598 x10_4/ul
  Ret: 9.2%
  WBC: 79 x10_2/uL
  KIDNEY_L: 0.8 g
  KIDNEY_R: 0.9 g
  KIDNEY_TOTAL: 1.7 g
  LIVER: 7.5 g
  A/G: 1.2
  ALP: 1634.6 IU/L
  ALT: 35.4 IU/L
  AST: 77 IU/L
  BUN: 11.4 mg/dL
  CRE: 0.1 mg/dL
  Ca: 10.5 mg/dL
  Cl: 106 meq/L
  DBIL: 0.002 mg/dL
  GLC: 190 mg/dL
  IP: 9.4 mg/dL
  K: 4.5 meq/L
  LDH: 231.8 IU/L
  Na: 140.8 meq/L
  PL: 140.2 mg/dL
  RALB: 2.9 g/dL
  TBIL: 0.01 mg/dL
  TC: 85.8 mg/dL
  TG: 37.2 mg/dL
  TP: 5.4 g/dL
  gamma-GTP: 1.2 IU/L
24 h
  TERMINAL_BW: 199.8 g
  APTT: 19.8 s
  Bas: 0%
  Eos: 0.8%
  Fbg: 345.2 mg/dL
  Hb: 13 g/dL
  Ht: 38.7%
  Lym: 86%
  MCH: 21.7 pg
  MCHC: 33.6%
  MCV: 64.6 fL
  Mono: 1.8%
  Neu: 10.4%
  PT: 15 s
  Plat: 125.5 x10_4/uL
  RBC: 599 x10_4/ul
  Ret: 7.7%
  WBC: 68.5 x10_2/uL
  KIDNEY_L: 0.9 g
  KIDNEY_R: 0.9 g
  KIDNEY_TOTAL: 1.8 g
  LIVER: 9.1 g
  A/G: 1.2
  ALP: 1513.8 IU/L
  ALT: 44.2 IU/L
  AST: 73.6 IU/L
  BUN: 15.4 mg/dL
  CRE: 0.1 mg/dL
  Ca: 11.1 mg/dL
  Cl: 105.2 meq/L
  DBIL: 0 mg/dL
  GLC: 190.8 mg/dL
  IP: 7.6 mg/dL
  K: 4.2 meq/L
  LDH: 210.4 IU/L
  Na: 142 meq/L
  PL: 161.2 mg/dL
  RALB: 3.1 g/dL
  TBIL: 0.014 mg/dL
  TC: 102.6 mg/dL
  TG: 39.4 mg/dL
  TP: 5.7 g/dL
  gamma-GTP: 1.4 IU/L
